Data as given in patent publication US7951921B2, “Multivalent carriers of bi-specific antibodies” (Immunomedics, Inc., priority 2003, dated 2011).
Primed or numbered codes have the meaning given here. DTPA′ = diethylenetriaminepentaacetic acid

Tests used:
[1] = not told; cited from earlier work
[2] = cited from earlier work
[3] = test system: hMN-14IgG^(I253A)-(734scFv)2; assay: Complex formation of radiolabeled DTPA peptides with bsMAb, size exclusion HPLC; format: binding; conditions: for complexing of bsMAb with radiolabeled indium-DTPA chelates: radioiodinated bsMAb, size exclusion HPLC
Excerpt: The binding of In-DTPA peptides to the anti-In-DTPA antibody hMN-14IgG^(I253A)-(734scFv)2 was examined by size exclusion HPLC. The bsMAb was radioiodinated using chloramines-T (Greenwood and Hunter). Binding of the radioiodinated bsMAbs to CEA, WI2 (rat anti-MN-14 idiotypic antibody) and radiolabeled peptidyl DTPA chelate was examined on analytical size exclusion HPLC. Approximately 90% of the radioiodinated bsMAb bound to CEA upon treatment with 10-20× molar excess of CEA. The bsMAb complexed with radiolabeled indium-DTPA chelates (IMP-156 or IMP-192).
An IMP 192 kit was labeled with Tc-99m 20.9 mCi. Aliquots from the kit were diluted and mixed with hMN-14IgG^(I253A)-(734scFv)2 in the following molar ratios (peptide/Ab) 1:5, 1:1, and 20:1. The peptide/antibody mixtures, the peptide alone and the antibody alone were examined on a Bio-Sil SEC 250 300 mm×7.8 mm HPC column eluted at 1 mL/min with 0.2 M phosphate buffer pH 6.8.
A known standard of hMN-14IgG^(I253A)-(734scFv)2 eluted from the column at about 9.41 minutes (FIG. 3). A known standard of Tc-99m IMP 192 eluted from the column at about 14.85 minutes (FIG. 4).

[4] = test system: hMN-14IgG^(I253A)-(734scFv)2; assay: Affinity blocking studies on IMP 240-coated BIAcore chip (surface plasmon resonance); format: binding
Experimental: (§1) The binding of In-DTPA peptides to the anti-In-DTPA antibody hMN-14IgG^(I253A)-(734scFv)2 was examined by affinity blocking studies using the IMP 240 peptide, Ac-Lys(DPTA)-Cys-NH2, which comprises a single DPTA group and a single Cys residue that can be used to form disulfide bridges with a second molecule having a free sulfhydryl group.
(§2) The binding studies were performed on a chip coated with IMP 240 using the disulfide connection as recommended by BIAcore. The chip surface was regenerated after each assay with 100 μL 0.025 M In-DTPA in HBS-In-citrate buffer as described. The binding studies were done with picomoles of antibody therefore binding was very sensitive to the slightest trace of In-DTPA left after the displacement wash.

[5] = test system: c734 IgG; assay: as above; format: binding
Experimental: as §1, §2
Studies were performed with c734-IgG to compare the In-DTPA peptide binding behavior of this IgG to the hMN-14IgG^(I253A)-(734scFv)2.

[6] = target: IMP 246 [Ac-Cys-Lys(DTPA)-Tyr-Lys(DTPA)-NH2]2; assay: size exclusion HPLC; In-111 IMP 246 mixed with bsAb at 1:10 (IMP 246:bsAb) mole ratio
[7] = target: CEA (carcinoembryonic antigen) (UniProt P06731); assay: analytical size exclusion HPLC of radioiodinated bsMAb mixed with 10-20x molar excess of CEA
Chain of UniProt P06731 (P06731 35-685 limits assumed): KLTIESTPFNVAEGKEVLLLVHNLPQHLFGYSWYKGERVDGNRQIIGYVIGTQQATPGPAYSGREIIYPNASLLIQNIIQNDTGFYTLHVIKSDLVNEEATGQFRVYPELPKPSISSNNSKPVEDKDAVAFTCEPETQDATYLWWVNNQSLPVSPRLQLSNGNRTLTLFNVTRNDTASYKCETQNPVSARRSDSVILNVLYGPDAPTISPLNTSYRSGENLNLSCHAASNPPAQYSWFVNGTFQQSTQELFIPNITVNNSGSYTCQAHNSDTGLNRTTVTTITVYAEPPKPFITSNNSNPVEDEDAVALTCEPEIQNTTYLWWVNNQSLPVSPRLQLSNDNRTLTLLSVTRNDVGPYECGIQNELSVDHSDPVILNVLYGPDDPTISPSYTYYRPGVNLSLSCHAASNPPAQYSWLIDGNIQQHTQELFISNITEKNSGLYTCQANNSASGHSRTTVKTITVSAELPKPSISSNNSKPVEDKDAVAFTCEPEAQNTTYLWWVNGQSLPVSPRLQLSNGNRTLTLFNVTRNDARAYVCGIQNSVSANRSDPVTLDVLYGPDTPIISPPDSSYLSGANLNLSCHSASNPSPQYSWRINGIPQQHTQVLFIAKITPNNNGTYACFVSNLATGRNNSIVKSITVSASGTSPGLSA

[8] = target: IMP 246 [Ac-Cys-Lys(DTPA)-Tyr-Lys(DTPA)-NH2]2; assay: size exclusion HPLC; labeled IMP 246 mixed with hMN-14 IgG^(I253A)-(734scFv)2, 16 hr at 37° C. in mouse serum
[9] = target: c734 IgG; assay: SPR blocking assay; peptide premixed with antibody, IMP 240 chip
[10] = target: hMN-14IgG^(I253A)-(734scFv)2; assay: as above

## Cl.NCCSSCCC(=O)O [AEDP]
[1]
  Membrane Permeable: No

## O=C(O)CCN1C(=O)C=CC1=O [BMPA]
[1]
  Membrane Permeable: No

## CCN=C=NCCCN(C)C [EDC, 1-ethyl-3-(3-dimethylaminopropyl)-carbodiimide]
[2]
  Water Soluble: Yes

## O=C(O)CCCCCN1C(=O)C=CC1=O [EMCA]
[1]
  Membrane Permeable: No

## O=C(CCCCCN1C(=O)C=CC1=O)ON1C(=O)CCC1=O [EMCS, N-[ε-maleimidocaproyloxy]succinimide ester]
[1]
  Membrane Permeable: Yes

## O=C(CCCN1C(=O)C=CC1=O)ON1C(=O)CCC1=O [GMBS, N-[γ-Maleimidobutyryloxy] succinimide ester]
[1]
  Membrane Permeable: Yes

## O=C(O)CCCCCCCCCCN1C(=O)C=CC1=O [KMUA]
[1]
  Membrane Permeable: No

## O=C(CCCCCNC(=O)C1CCC(CN2C(=O)C=CC2=O)CC1)ON1C(=O)CCC1=O (centres unmarked) [LC-SMCC, succiminidyl-4-(N-maleimidomethyl)cyclohexane-1-carboxy-(6-amido-caproate)]
[1]
  Membrane Permeable: No

## O=C(CCSSc1ccccn1)NCCCCCC(=O)ON1C(=O)CCC1=O [LC-SPDP, N-succinimidyl 6-[3′-(2-pyridyldithio)propionamido]hexanoate]
[2]
  Water Soluble: No

## O=C(ON1C(=O)CCC1=O)c1cccc(N2C(=O)C=CC2=O)c1 [MBS, m-maleimidobenzoyl-N-hydoxysuccinimide ester]
[1]
  Membrane Permeable: Yes

## CC(=O)SCCC(=O)ON1C(=O)CCC1=O [SATP]
[1]
  Membrane Permeable: Yes

## O=C(CBr)NCCC(=O)ON1C(=O)CCC1=O [SBAP]
[1]
  Membrane Permeable: Yes

## O=C(CI)Nc1ccc(C(=O)ON2C(=O)CCC2=O)cc1 [SIAB, N-succinimidyl(4-iodoacetyl)aminobenzoate]
[1]
  Membrane Permeable: Yes

## O=C(ON1C(=O)CCC1=O)C1CCC(CN2C(=O)C=CC2=O)CC1 (centres unmarked) [SMCC, succinimidyl 4-(N-maleimidomethyl)cyclohexane-1-carboxylate]
[1]
  Membrane Permeable: Yes

## CC(SSc1ccccn1)c1ccc(C(=O)ON2C(=O)CCC2=O)cc1 (centres unmarked) [SMPT, 4-succinimidyloxycarbonyl-methyl-(2-pyridyldithio)-toluene]
[2]
  Water Soluble: No

## O=C(CCSSc1ccccn1)ON1C(=O)CCC1=O [SPDP, N-succinimidyl 3-(2-pyridyldithio)propionate]
[1]
  Membrane Permeable: Yes

## C=CS(=O)(=O)c1ccc(C(=O)ON2C(=O)CCC2=O)cc1 [SVSB]
[1]
  Membrane Permeable: Yes

## O=C(CCCCCN1C(=O)C=CC1=O)ON1C(=O)CC(S(=O)(=O)O)C1=O (centres unmarked) [Sulfo-EMCS, N-[ε-maleimidocaproyloxy]sulfosuccinimide ester]
[1]
  Membrane Permeable: No

## O=C(CCCN1C(=O)C=CC1=O)ON1C(=O)CC(S(=O)(=O)O)C1=O (centres unmarked) [Sulfo-GMBS, N-[γ-Maleimidobutyryloxy] sulfosuccinimide ester]
[1]
  Membrane Permeable: No

## O=C(CCCCCCCCCCN1C(=O)C=CC1=O)ON1C(=O)CC(S(=O)(=O)O)C1=O.[Na] (centres unmarked) [Sulfo-KMUS]
[1]
  Membrane Permeable: No

## CC(SSc1ccccn1)c1ccc(C(=O)NCCCCCC(=O)ON2C(=O)CC(S(=O)(=O)O)C2=O)cc1 (centres unmarked) [Sulfo-LC-SMPT, sulfosuccinimidyl 6-[a-methyl-a-(2-pyridyl-dithio)toluamido]hexanoate]
[2]
  Water Soluble: Yes

## O=C(CCSSc1ccccn1)NCCCCCC(=O)ON1C(=O)CC(S(=O)(=O)O)C1=O (centres unmarked) [Sulfo-LC-SPDP, sulfosuccinimidyl 6-[3′-(2-pyridyldithio)-propionamido] hexanoate]
[2]
  Water Soluble: Yes

## O=C(ON1C(=O)CC(S(=O)(=O)O)C1=O)c1cccc(N2C(=O)C=CC2=O)c1 (centres unmarked) [Sulfo-MBS, m-maleimidobenzoyl-N-hydoxysulfosuccinimide ester]
[1]
  Membrane Permeable: No

## O=C(CI)Nc1ccc(C(=O)ON2C(=O)CC(S(=O)(=O)O)C2=O)cc1 (centres unmarked) [Sulfo-SIAB, sulfosuccinimidyl(4-iodoacetyl)aminobenzoate]
[1]
  Membrane Permeable: No

## O=C(ON1C(=O)CC(S(=O)(=O)O)C1=O)C1CCC(CN2C(=O)C=CC2=O)CC1 (centres unmarked) [Sulfo-SMCC, sulfosuccinimidyl 4-(N-maleimidomethyl)cyclohexane-1-carboxylate]
[1]
  Membrane Permeable: No

## O=C(CCCc1ccc(N2C(=O)C=CC2=O)cc1)ON1C(=O)CC(S(=O)(=O)O)C1=O (centres unmarked) [Sulfo-SMPB, sulfosuccinimidyl 4-[p-maleimidophenyl]butyrate]
[2]
  Water Soluble: Yes

## Ac-Lys(DTPA)-Tyr-Lys(DTPA)-Lys(TSCG-Cys)-NH2 [IMP 192]
[3]; Tc-99m IMP 192 mixed with antibody, molar ratios 1:5, 1:1, 20:1
  peptide/antibody complexes formed (HPLC traces): essentially only one peptide/antibody complex is formed
[3]
  complexing of bsMAb with radiolabeled indium-DTPA chelates: complexed

## Ac-Phe-Gln-Tyr-Lys(DTPA)-NH2 (Ac-FQYK(DTPA′)-NH2) [IMP 233]
[4]; four equivalents of peptide premixed with the antibody
  blocking of antibody binding to the IMP 240 chip: not completely blocked
[5]; 4:1 peptide/c734 IgG
  blocking of antibody binding to the IMP 240 chip: did not completely block

## Ac-Phe-Lys(DTPA)-Tyr-Lys(DTPA)-NH2 (Ac-FK(DTPA′)YK(DTPA′)-NH2) [IMP 156]
[3]
  complexing of bsMAb with radiolabeled indium-DTPA chelates: complexed
[4]
  affinity of antibody for In-IMP 156 relative to a single In-DTPA for a c734 IgG binding arm: far higher
  equivalents of peptide that block binding to the chip: one equivalent
[4]; peptide mixed with antibody in a 1:1 ratio
  blocking of antibody binding to the IMP 240 chip: completely blocked
[5]
  equivalents of peptide needed to block binding to the chip: two or more equivalents

## hMN-14IgG-(734scFv)2 (bispecific antibody)
[6]
  percent of In-111 label in the complex peak: 83%

## hMN-14IgG^(I253A)-(734scFv)2 (bispecific antibody)
[6]
  percent of In-111 label in the complex peak: 90%
[7]
  percent of bsMAb bound: 90%
[8]
  percent of HPLC area in the complex peak after 16 hr in mouse serum: > 90%

B1: IMP 156 Ac-Phe-Lys(DTPA)-Tyr-Lys(DTPA)-NH2 (peptide)
peptide: Ac-FK(DTPA′)YK(DTPA′)-NH2
modifications: also: DTPA loaded with indium
[9]
  equivalents of peptide needed to block binding to the IMP 240 chip: 2 equivalents
[10]
  equivalents of peptide needed to block binding to the IMP 240 chip: 1 equivalents
